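Five compound concentrations were applied to cells in 96-well plates for 48 hours; endpoints were derived by simple linear interpolation of the resulting dose-response curve. TGI: concentration producing complete growth inhibition.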
How the values were obtained:
Experiment in all cases: inhibition of tumour cell growth, NCI panel, 48 h
[1] = system: CAKI-1 renal
[2] = system: UO-31 renal
[3] = system: SF-539 CNS
[4] = system: SK-OV-3 ovarian
[5] = system: MALME-3M melanoma
[6] = system: KM12 colon
[7] = system: MDA-MB-231 breast
[8] = system: MDA-MB-435
[9] = system: NCI/ADR-RES ovarian
[10] = system: HCT-116 colon
[11] = system: LOX IMVI melanoma
[12] = system: NCI-H460 lung
[13] = system: UACC-257 melanoma
[14] = system: SNB-75 CNS
[15] = system: UACC-62 melanoma
[16] = system: SK-MEL-28 melanoma
[17] = system: HS 578T breast
[18] = system: TK-10 renal
[19] = system: NCI-H226 lung
[20] = system: IGROV1 ovarian
[21] = system: M14 melanoma
[22] = system: MOLT-4 leukemia
[23] = system: OVCAR-5 ovarian
[24] = system: RXF 393 renal
[25] = system: SR leukemia
[26] = system: A498 renal
[27] = system: OVCAR-3 ovarian
[28] = system: K-562 leukemia
[29] = system: COLO 205 colon
[30] = system: DU-145 prostate
[31] = system: RPMI-8226 leukemia
[32] = system: OVCAR-8 ovarian
[33] = system: ACHN renal
[34] = system: SN12C renal
[35] = system: U251 CNS
[36] = system: MDA-N
[37] = system: HOP-92 NSCLC
[38] = system: NCI-H23 lung
[39] = system: HT29 colon
[40] = system: MCF7 breast
[41] = system: HCC-2998 colon
[42] = system: A549 NSCLC
[43] = system: BT-549 breast
[44] = system: SW-620 colon
[45] = system: PC-3 prostate
[46] = system: SK-MEL-5 melanoma
[47] = system: T-47D breast
[48] = system: HOP-62 NSCLC
[49] = system: SF-268 CNS
[50] = system: NCI-H522 lung
[51] = system: 786-0 renal
[52] = system: OVCAR-4 ovarian
[53] = system: SNB-19 CNS
[54] = system: SF-295 CNS
[55] = system: HCT-15 colon
[56] = system: CCRF-CEM leukemia
[57] = system: SK-MEL-2 melanoma
[58] = system: EKVX NSCLC

Compound: CCOC(=O)C(C(N)=O)c1nc2cc([N+](=O)[O-])ccc2nc1/C=C(\O)c1ccc(C)cc1 (stereo not drawn)
- TGI [1]: > 100 µM
- TGI [2]: 49 µM
- TGI [3]: 36.5 µM
- TGI [4]: 39.4 µM
- TGI [5]: > 100 µM
- TGI [6]: > 100 µM
- TGI [7]: 46.7 µM
- TGI [8]: > 100 µM
- TGI [9]: 53 µM
- TGI [10]: 55.4 µM
- TGI [11]: 57.4 µM
- TGI [12]: 58.1 µM
- TGI [13]: > 100 µM
- TGI [14]: 42 µM
- TGI [15]: > 72.3 µM
- TGI [16]: > 71.1 µM
- TGI [17]: 75.1 µM
- TGI [18]: 30.2 µM
- TGI [19]: > 100 µM
- TGI [20]: 43 µM
- TGI [21]: > 100 µM
- TGI [22]: 1.39 µM
- TGI [23]: > 100 µM
- TGI [24]: 37.1 µM
- TGI [25]: 25.9 µM
- TGI [26]: > 67.7 µM
- TGI [27]: 31.1 µM
- TGI [28]: 12.1 µM
- TGI [29]: > 93.2 µM
- TGI [30]: > 100 µM
- TGI [31]: 40.6 µM
- TGI [32]: 40.1 µM
- TGI [33]: > 52.6 µM
- TGI [34]: 85.5 µM
- TGI [35]: 33.5 µM
- TGI [36]: > 100 µM
- TGI [37]: 40.8 µM
- TGI [38]: 34.3 µM
- TGI [39]: > 100 µM
- TGI [40]: > 60.5 µM
- TGI [41]: 62.7 µM
- TGI [42]: > 74.1 µM
- TGI [43]: 51.4 µM
- TGI [44]: > 92.3 µM
- TGI [45]: 40.4 µM
- TGI [46]: > 100 µM
- TGI [47]: > 100 µM
- TGI [48]: 33.9 µM
- TGI [49]: 35.8 µM
- TGI [50]: 47.8 µM
- TGI [51]: 28.7 µM
- TGI [52]: > 100 µM
- TGI [53]: 48.3 µM
- TGI [54]: 43.6 µM
- TGI [55]: > 82.2 µM
- TGI [56]: > 100 µM
- TGI [57]: 48.9 µM
- TGI [58]: > 100 µM

Reference: PubChem BioAssay (NCI)
